Assay results from US20260217701A1, “SELECTIVE BET INHIBITORS AND USES THEREOF” (Tay Therapeutics Limited, priority 2022, published 2026).
Read-outs that look alike come from different tables or passages of the source. Marks after values point to notes of the source that are not given here. One block for each compound: values may come before it.

Columns and labels:
BRD4 BD2 = target: T1, BRD4 BD2 (Homo sapiens, UniProt O60885); experiment: NanoBRET bromodomain assay, NanoLuc-BRD4-BD2 in HEK293 cells; type: binding; conditions: for Selectivity (BD1/BD2) / BD2: nanoBRET assay, given as symbol only; for Selectivity (BD1/BD2): higher number denotes higher selectivity; for BD2: lower number denotes higher potency
T1 construct: HEK293 cells were transfected using NanoLuc-BRD4-BD1 or NanoLuc-BRD4-BD2 fusion vectors
Method: Plates were then incubated at 37° C.+5% CO2 incubator for 2 hours.
Fold Selectivity Calculated (IC50 BD1/IC50 BD2).

BET BD2 = conditions: public sources, not a head-to-head trial, cited from earlier work; for BD2: comparator BET inhibitors
anti-collagen IgG1 = experiment: CIA model: rat anti-collagen IgG1 levels; type: in vivo, Lewis rats; set-up: Average rat anti-collagen IgG1 levels, Mean: unit not given here
[1] = system: idiopathic pulmonary fibrosis (bleomycin); experiment: Bleomycin IPF model: lung histology, Masson's Trichrome with Ashcroft scoring; type: in vivo, C57BI/6J mice; conditions: for Ashcroft scores relative to IPF control group: Day 21
Method: Animals were acclimated for two weeks prior to study initiation, and were randomized into the experimental groups outlined in Table 32. Intratracheal (IT) administration of Bleo or PBS control was conducted at the start of the study (Day 0). […] Following administration of Bleo, animals (n=10/group) were included in the study if they met the following guidelines on Day 7: […] A resection of the right lung was weighed and homogenized to determine total hydroxyproline levels by colorimetric assay, and the remaining lung lysate was saved for future analyses. For the morphological assessments, the left lung was inflation-fixed at 25 cm of water pressure with 4% paraformaldehyde in PBS for 1 minute, processed, and then sectioned. Morphological analysis of the lung was conducted using H&E-stained slides. Additional histologic stains for morphological analyses included Masson's Trichrome staining with Ashcroft scoring to determine severity of fibrosis.

hydroxyproline = experiment: Bleomycin IPF model: hydroxyproline content in lung lysates; type: in vivo, C57BI/6J mice; set-up: Hydroxyproline Levels, Mean: unit not given here
Method: Male C57BI/6J mice, aged 12 weeks with an approximate weight of 25-30 g were obtained from Jackson Laboratories (Bar Harbor, ME). Animals were acclimated for two weeks prior to study initiation, and were randomized into the experimental groups outlined in Table 32.
Intratracheal (IT) administration of Bleo or PBS control was conducted at the start of the study (Day 0). […] Animals were weighed on Day 0, and indexed boluses of PBS control (Group 1) or Bleo (Groups 2-6) were delivered by IT administration.
Following administration of Bleo, animals (n=10/group) were included in the study if they met the following guidelines on Day 7: (1) a predictable 5% loss in body weight, and (2) the presence of fibrotic pulmonary lesions, detected by micro-CT imaging. 10 animals from Group 1 additionally proceeded as controls. Animals that continued in the study on Day 7 received an oral gavage (OG) administration of PBS, Compound A (1 mg/kg, 3 mg/kg, 10 mg/kg), or Pirfenidone (300 mg/kg), as outlined in Table 31 in 25 μL boluses every other day (QOD), starting on Day 7. Compound A was formulated in 5% (v/v) DMSO/15% (v/v) PEG 400/80% (v/v) E-TPGS in purified water.
Animals were euthanized on Day 21 following Micro-CT imaging, and the right lung was collected for biochemical analysis, and the left lung was inflation-fixed for morphological assessments. A resection of the right lung was weighed and homogenized to determine total hydroxyproline levels by colorimetric assay, and the remaining lung lysate was saved for future analyses.

[2] = Bleo + Compound A (1 mg/kg) OG QOD from D7
[3] = Bleo + Compound A (3 mg/kg) OG QOD from D7
[4] = Bleo + Compound A (10 mg/kg) OG QOD from D7

Selectivity (BD1/BD2) (BRD4 BD2): >>>>
BD2 (BRD4 BD2): ≤
Structure (SMILES): COCCn1cc(-c2ccccc2)c(-c2cn(C)c(=O)c3[nH]c(-c4cnn(C(F)(F)F)c4)cc23)cc1=O [Compound B, 4-(1-(2-methoxyethyl)-2-oxo-5-phenyl-1,2-dihydropyridin-4-yl)-6-methyl-2-(1-(trifluoromethyl)-1H-pyrazol-4-yl)-1,6-dihydro-7H-pyrrolo[2,3-c]pyridin-7-one]

Structure (SMILES): CNC(=O)c1cc(C(=O)NC2CC2)cn(Cc2ccccc2)c1=O [GSK620]
BD2 (BET BD2): 79 nM

Structure (SMILES): C[C@@H]1C[C@H]2[C@@H]3CCC4=CC(=O)C=C[C@]4(C)[C@@]3(F)[C@@H](O)C[C@]2(C)[C@@]1(O)C(=O)CO [Dexamethasone, dexamethasone]
Average rat anti-collagen IgG1 levels, Mean (anti-collagen IgG1; Group 3 (CIA + Dexamethasone)): 7833.69*

Structure (SMILES): CCNC(=O)c1cc2c(-c3cc(C(C)(C)O)ccc3Oc3c(C)cc(F)cc3C)cn(C)c(=O)c2[nH]1 [ABBV-744]
Selectivity (BD1/BD2) (BET BD2; FRET, comparator): 753x (FRET)
BD2 (BET BD2): 28 nM

Structure (SMILES): Cn1cc(-c2ccccc2)c(-c2cn(C)c(=O)c3[nH]c(-c4cnn(C(F)(F)F)c4)cc23)cc1=O [Compound A, 6-methyl-4-(1-methyl-2-oxo-5-phenyl-1,2-dihydropyridin-4-yl)-2-(1-(trifluoromethyl)-1H-pyrazol-4-yl)-1,6-dihydro-7H-pyrrolo[2,3-c]pyridin-7-one]
selectivity for BDII relative to GSK620 (BRD4 BD2): greater than about two orders of magnitude
Selectivity (BD1/BD2) (BRD4 BD2): >>>>
BD2 (BRD4 BD2): <
EC50 (BRD4 BD2; previously determined, reference level for rat plasma concentrations (FIG. 4D), read-out: free EC50 BD2 BRD4 (converted)): 18.9 nM
EC50 (BRD4 BD2; reference level for dog plasma concentrations (Dog PK study #4), read-out: free EC50 BD2 BRD4 (converted)): 14.5 nM
EC50 (BRD4 BD2; stated with the CIA study PK, domain not stated, read-out: free EC50 (converted)): 17.2 nM
Average rat anti-collagen IgG1 levels, Mean (anti-collagen IgG1; Group 5 (CIA + Compound A 1 mg/kg)): 1180.61**
Average rat anti-collagen IgG1 levels, Mean (anti-collagen IgG1; Group 6 (CIA + Compound A 3 mg/kg)): 569.60**
Average rat anti-collagen IgG1 levels, Mean (anti-collagen IgG1; Group 7 (CIA + Compound A 10 mg/kg)): 220.15**
Inhibition of IgG1 (anti-collagen IgG1; all three doses): near complete inhibition of IgG1
Ashcroft Scoring, Max [1, 2]: 7
Ashcroft Scoring, Mean [1, 2]: 5.25
Ashcroft Scoring, Min [1, 2]: 4
Ashcroft Scoring, Max [1, 3]: 5
Ashcroft Scoring, Mean [1, 3]: 4.416
Ashcroft Scoring, Min [1, 3]: 3
Ashcroft Scoring, Max [1, 4]: 5
Ashcroft Scoring, Mean [1, 4]: 3.708
Ashcroft Scoring, Min [1, 4]: 2
Ashcroft scores relative to IPF control group ([1]; 1, 3, 10 mg/kg): decreased Ashcroft scores
Ashcroft scores relative to IPF control group ([1]; Group 5, 10 mg/kg): significantly reduced Ashcroft scores
Fibrosis in lung tissue (Masson's Trichrome) compared to Group 2 (Bleo+Saline) ([1]; Group 5 (Compound A 10) and Group 6 (Pirfenidone)): qualitatively diminished
Hydroxyproline Levels, Mean (hydroxyproline; [2]): 0.05281
Hydroxyproline Levels, Mean (hydroxyproline; [3]): 0.05418
Hydroxyproline Levels, Mean (hydroxyproline; [4]): 0.04627
Hydroxyproline levels relative to Group 2 (hydroxyproline; Day 21, 1 mg/kg and 3 mg/kg): reduced levels of hydroxyproline
Hydroxyproline levels, lower than IPF control group (Bleo+Saline) (hydroxyproline; Day 21, 10 mg/kg): about 60.4%
